Measured values reported in paper PMC13600695, “Identifying a novel mechanism of L-leucine uptake in Mycobacterium tuberculosis using a chemical genomic approach” (eLife, 2026).

Target: PpsB (6x His-PpsB) (Mycobacterium tuberculosis, UniProt P9WQE5)
Assay: biochemical

Chain of PpsB (6x His-PpsB) (P9WQE5 whole entry): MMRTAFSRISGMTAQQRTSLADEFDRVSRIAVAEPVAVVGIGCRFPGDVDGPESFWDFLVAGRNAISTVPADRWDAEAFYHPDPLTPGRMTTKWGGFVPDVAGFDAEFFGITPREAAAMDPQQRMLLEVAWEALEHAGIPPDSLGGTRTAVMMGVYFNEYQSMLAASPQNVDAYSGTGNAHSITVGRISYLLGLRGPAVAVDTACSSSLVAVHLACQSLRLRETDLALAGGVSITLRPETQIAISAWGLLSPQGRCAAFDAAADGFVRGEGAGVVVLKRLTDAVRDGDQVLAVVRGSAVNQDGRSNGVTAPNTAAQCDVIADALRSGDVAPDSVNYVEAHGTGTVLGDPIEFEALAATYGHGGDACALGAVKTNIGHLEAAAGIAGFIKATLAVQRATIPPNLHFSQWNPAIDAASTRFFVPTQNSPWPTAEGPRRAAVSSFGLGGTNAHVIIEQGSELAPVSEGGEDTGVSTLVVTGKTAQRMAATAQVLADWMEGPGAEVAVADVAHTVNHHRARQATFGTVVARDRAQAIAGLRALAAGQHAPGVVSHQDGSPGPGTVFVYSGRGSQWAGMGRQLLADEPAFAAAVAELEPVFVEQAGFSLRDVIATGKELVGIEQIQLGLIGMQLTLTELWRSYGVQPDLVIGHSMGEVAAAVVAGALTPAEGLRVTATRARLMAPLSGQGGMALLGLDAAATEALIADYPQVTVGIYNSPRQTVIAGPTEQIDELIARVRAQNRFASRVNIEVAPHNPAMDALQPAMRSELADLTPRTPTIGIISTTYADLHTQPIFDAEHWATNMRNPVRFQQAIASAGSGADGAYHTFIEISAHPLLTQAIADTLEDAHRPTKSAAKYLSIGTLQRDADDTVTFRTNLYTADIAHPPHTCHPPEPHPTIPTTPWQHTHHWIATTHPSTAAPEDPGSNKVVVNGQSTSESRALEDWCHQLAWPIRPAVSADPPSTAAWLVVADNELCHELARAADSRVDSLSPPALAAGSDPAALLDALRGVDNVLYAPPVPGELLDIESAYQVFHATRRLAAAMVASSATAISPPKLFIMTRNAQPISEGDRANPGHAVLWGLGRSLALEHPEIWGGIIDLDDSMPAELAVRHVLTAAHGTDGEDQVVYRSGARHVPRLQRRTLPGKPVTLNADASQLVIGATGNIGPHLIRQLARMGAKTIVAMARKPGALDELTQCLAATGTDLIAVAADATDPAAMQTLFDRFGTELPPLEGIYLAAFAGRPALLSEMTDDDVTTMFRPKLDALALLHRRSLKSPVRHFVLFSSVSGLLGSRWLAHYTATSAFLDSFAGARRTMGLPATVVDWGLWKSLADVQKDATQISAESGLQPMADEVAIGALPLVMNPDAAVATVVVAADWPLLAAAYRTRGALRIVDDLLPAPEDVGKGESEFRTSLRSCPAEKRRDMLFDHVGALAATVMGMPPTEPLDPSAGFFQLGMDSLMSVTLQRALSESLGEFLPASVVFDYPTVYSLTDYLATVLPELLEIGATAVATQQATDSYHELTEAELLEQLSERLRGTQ

`C/C(=N\NC(=N)N)c1cc(NC(=O)CCCCCCCCC(=O)Nc2cc(/C(C)=N/NC(=N)N)cc(/C(C)=N/NC(=N)N)c2)cc(/C(C)=N/NC(=N)N)c1` [semapimod] showed a Kd of 110 nM.
